T/C data for 23 molecules are collected here from PubChem BioAssay AID330 (DTP/NCI, 2004).

The test system of this test is P388 leukemia ip, CD2F1 mice, survival T/C. Put plainly: NCI In Vivo Anticancer Drug Screen. Data for tumor model P388 Leukemia (intraperitoneal) in CD2F1 (CDF1) mice. Conditions: endpoint: median survival time, higher = longer survival. The gist of the method: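 Mice carrying the transplanted tumor received test compound or vehicle. Survival was recorded in each group, and the value is the treated-group measurement divided by that of the vehicle-treated control group.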

Where [1] appears, read: dose: 50.0 mg/kg/injection, schedule: Q01DX005 (ip), vehicle: Klucel (hydroxypropylcellulose) (HPC).
[2] abbreviates: dose: 100.0 mg/kg/injection, schedule: Q01DX005 (ip), vehicle: Klucel (hydroxypropylcellulose) (HPC).
[3] abbreviates: dose: 200.0 mg/kg/injection, schedule: Q01DX005 (ip), vehicle: Klucel (hydroxypropylcellulose) (HPC).
[4] abbreviates: dose: 50.0 mg/kg/injection, schedule: Q01DX009 (ip), vehicle: saline with Tween-80.
The mark [5] stands for this setting: dose: 100.0 mg/kg/injection, schedule: Q01DX009 (ip), vehicle: saline with Tween-80.
Where [6] appears, read: dose: 100.0 mg/kg/injection, schedule: Q01DX001 (ip), vehicle: saline.
The mark [7] stands for this setting: dose: 200.0 mg/kg/injection, schedule: Q01DX001 (ip), vehicle: saline.
The mark [8] stands for this setting: dose: 60.0 mg/kg/injection, schedule: Q01DX005 (ip), vehicle: saline with Tween-80.
[9] abbreviates: dose: 120.0 mg/kg/injection, schedule: Q01DX005 (ip), vehicle: saline with Tween-80.
[10] abbreviates: dose: 240.0 mg/kg/injection, schedule: Q01DX005 (ip), vehicle: saline with Tween-80.
Setting [11] is: dose: 50.0 mg/kg/injection, schedule: Q01DX009 (ip), vehicle: Klucel (hydroxypropylcellulose) (HPC).
The mark [12] stands for this setting: dose: 100.0 mg/kg/injection, schedule: Q01DX009 (ip), vehicle: Klucel (hydroxypropylcellulose) (HPC).
[13] abbreviates: dose: 200.0 mg/kg/injection, schedule: Q01DX009 (ip), vehicle: Klucel (hydroxypropylcellulose) (HPC).
Where [14] appears, read: dose: 60.0 mg/kg/injection, schedule: Q01DX005 (ip), vehicle: saline.

Several values for one entry are separate records, joined by “and”; a condition that tells them apart may be missing. Equal entries are not always repeated. Inconclusive results and toxic doses are left out. Square brackets hold non-standard residues; d marks the D form. Peptide text beside a SMILES is read from it. ξ: configuration not given here. ξT = CC(O)C(N)C(=O)O

Regarding `CN1CCCN(C)C1c1cc(Br)ccc1O`, the T/C is 95 % of control (dose: 6.25 mg/kg/injection, schedule: Q01DX009 (ip), vehicle: saline sonified); 90 % of control (dose: 12.5 mg/kg/injection, schedule: Q01DX009 (ip), vehicle: saline sonified); 100 % of control (dose: 25.0 mg/kg/injection, schedule: Q01DX009 (ip), vehicle: saline sonified).

Consider `O=C1C=C(N2CCOCC2)C(=O)C=C1N1CCOCC1`, for which the T/C reads like this: under setting [1], 90 % of control; under setting [2], 98 % of control; under setting [3], 92 % of control.

Consider `CCCCN(CCCC)CC(O)c1cc(-c2ccc(Cl)cc2)nc(-c2ccc(Cl)cc2)c1` (stereo not given), for which the T/C is, setting by setting: (dose: 12.5 mg/kg/injection, schedule: Q01DX009 (ip), vehicle: saline with Tween-80) 90 % of control; (dose: 25.0 mg/kg/injection, schedule: Q01DX009 (ip), vehicle: saline with Tween-80) 90 % of control; under setting [4], 92 % of control and 93 % of control; under setting [5], 90 % of control.

In the case of `Cc1c(CNc2ccc(C(=O)NC(CC(=O)O)CC(=O)O)cc2)ccc2nc(N)nc(N)c12`, the T/C is 229 % of control (dose: 3.13 mg/kg/injection, schedule: Q04DX003 (ip), vehicle: saline); 118 % of control (dose: 12.5 mg/kg/injection, schedule: Q04DX003 (ip), vehicle: saline with Tween-80); 113 % of control (dose: 25.0 mg/kg/injection, schedule: Q04DX003 (ip), vehicle: saline with Tween-80); 90 % of control (dose: 33.0 mg/kg/injection, schedule: Q04DX003 (ip), vehicle: saline sonified); 86 % of control (dose: 50.0 mg/kg/injection, schedule: Q04DX003 (ip), vehicle: saline sonified); 159 % of control (dose: 50.0 mg/kg/injection, schedule: Q04DX003 (ip), vehicle: saline with Tween-80).

In the case of `OCCNc1ncnc2cc(Cl)ccc12`, the T/C (dose: 25.0 mg/kg/injection, schedule: Q01DX005 (ip), vehicle: Klucel (hydroxypropylcellulose) (HPC)) was 98 % of control; the T/C under setting [1] was 95 % of control; the T/C under setting [2] was 105 % of control; the T/C under setting [3] was 98 % of control.

Take `CCN(CC)CCCNc1c(O)cc(C)c2sc3ccccc3c(=O)c12`: the T/C by setting is: under setting [4], 94 % of control; under setting [5], 94 % of control; (dose: 200.0 mg/kg/injection, schedule: Q01DX009 (ip), vehicle: saline with Tween-80) 100 % of control.

As to `CC(O)C(N)C(=O)NCC(=O)NCC(=O)O` (stereo not drawn) (H-[ξT]-Gly-Gly-OH), the T/C runs as follows: (dose: 50.0 mg/kg/injection, schedule: Q01DX005 (ip), vehicle: saline) 101 % of control; (dose: 100.0 mg/kg/injection, schedule: Q01DX005 (ip), vehicle: saline) 101 % of control; (dose: 200.0 mg/kg/injection, schedule: Q01DX005 (ip), vehicle: saline) 104 % of control.

Take `COC1C2OC(C)(C)OC2OC1C(C)N(C)O` (stereo not given): the T/C (dose: 100.0 mg/kg/injection, schedule: Q01DX001 (ip), vehicle: Klucel (hydroxypropylcellulose) (HPC)) is 103 % of control; the T/C under setting [6] is 116 % of control; the T/C (dose: 200.0 mg/kg/injection, schedule: Q01DX001 (ip), vehicle: Klucel (hydroxypropylcellulose) (HPC)) was 106 % of control; the T/C under setting [7] is 104 % of control; the T/C (dose: 400.0 mg/kg/injection, schedule: Q01DX001 (ip), vehicle: Klucel (hydroxypropylcellulose) (HPC)) was 103 % of control; the T/C (dose: 400.0 mg/kg/injection, schedule: Q01DX001 (ip), vehicle: saline) was 99 % of control.

In the case of `O=C1CS(=O)(=O)C(c2cccc(F)c2)N1N1C(=O)CS(=O)(=O)C1c1cccc(F)c1` (stereo not given), the T/C is 92 % of control under setting [8], 95 % of control under setting [9] and 94 % of control under setting [10].

For `C=CCSc1nc2ccc(NCN3C(=O)c4ccccc4C3=O)cc2s1`, the T/C under setting [11] was 96 % of control, the T/C under setting [12] was 96 % of control and the T/C under setting [13] was 98 % of control.

Take `COc1ccc2c(c1OC)-c1ccccc1C(=O)OC2`: the T/C (dose: 100.0 mg/kg/injection, schedule: Q04DX002 (ip), vehicle: saline with Tween-80) was 109 % of control; the T/C (dose: 200.0 mg/kg/injection, schedule: Q04DX002 (ip), vehicle: saline with Tween-80) is 100 % of control; the T/C (dose: 400.0 mg/kg/injection, schedule: Q04DX002 (ip), vehicle: saline with Tween-80) is 91 % of control.

As for `CCOC(=O)/C(C#N)=C/Nc1[nH]c(=O)c(C#N)c(-c2ccc(Cl)cc2)c1SC`, the T/C runs as follows: under setting [8], 110 % of control; under setting [9], 100 % of control; under setting [10], 108 % of control.

On to `CC(C)N(C(=O)c1cccc(C(=O)N(C(C)C)C(C)C)n1)C(C)C`, for which the T/C by setting is: under setting [8], 101 % of control; under setting [9], 95 % of control; under setting [10], 95 % of control.

As to `O=c1c2[nH]c3ccccc3sc=2c(=O)n1-c1cccc(Cl)c1`, the T/C is, setting by setting: (dose: 50.0 mg/kg/injection, schedule: Q01DX005 (ip), vehicle: saline with Tween-80) 102 % of control; (dose: 100.0 mg/kg/injection, schedule: Q01DX005 (ip), vehicle: saline with Tween-80) 102 % of control; (dose: 200.0 mg/kg/injection, schedule: Q01DX005 (ip), vehicle: saline with Tween-80) 105 % of control.

For `COc1cc(N2C(=O)C(=O)C(C(C)=O)C2=O)c(OC)cc1Cl` (stereo not given), the T/C under setting [11] is 100 % of control, the T/C under setting [12] was 99 % of control and the T/C under setting [13] was 100 % of control.

With `Cn1cc(C#N)c(=O)[nH]c1=O`, the T/C reads like this: under setting [1], 101 % of control; under setting [2], 98 % of control; under setting [3], 104 % of control.

For `COc1ccc(C[n+]2ccc3ccccc3c2)cc1`, the T/C (dose: 15.0 mg/kg/injection, schedule: Q01DX005 (ip), vehicle: saline) is 95 % of control; the T/C (dose: 30.0 mg/kg/injection, schedule: Q01DX005 (ip), vehicle: saline) was 95 % of control; the T/C under setting [14] was 106 % of control and 111 % of control.

In the case of `COc1ccc(CC(=O)NCCc2ccc3cc(OC)c(OC)cc3c2)cc1OC`, the T/C (dose: 100.0 mg/kg/injection, schedule: Q04DX003 (ip), vehicle: saline with Tween-80) is 100 % of control; the T/C (dose: 200.0 mg/kg/injection, schedule: Q04DX003 (ip), vehicle: saline with Tween-80) was 100 % of control; the T/C (dose: 400.0 mg/kg/injection, schedule: Q04DX003 (ip), vehicle: saline with Tween-80) is 100 % of control.

As for `Cc1cc(C)[n+]([O-])c(C)c1`, the T/C under setting [8] is 101 % of control; the T/C under setting [14] was 105 % of control; the T/C under setting [9] was 99 % of control; the T/C (dose: 120.0 mg/kg/injection, schedule: Q01DX005 (ip), vehicle: saline) was 102 % of control; the T/C under setting [10] is 97 % of control; the T/C (dose: 240.0 mg/kg/injection, schedule: Q01DX005 (ip), vehicle: saline) was 105 % of control.

For the molecule `O=C1CCCN1C(=O)C1CC1`, the T/C is 100 % of control (dose: 50.0 mg/kg/injection, schedule: Q01DX001 (ip), vehicle: saline); 109 % of control under setting [6]; 100 % of control under setting [7].

For `BrCC[P+](c1ccccc1)(c1ccccc1)c1ccccc1`, the T/C reads like this: (dose: 1.56 mg/kg/injection, schedule: Q01DX009 (ip), vehicle: water) 115 % of control; (dose: 3.0 mg/kg/injection, schedule: Q01DX009 (ip), vehicle: water) 120 % of control; (dose: 6.25 mg/kg/injection, schedule: Q01DX009 (ip), vehicle: water) 118 % of control.

For the molecule `COC(=O)C1c2c(C)cc3n2C(C=CC3)C1C(=O)OC` (stereo not given), the T/C was 94 % of control (dose: 100.0 mg/kg/injection, schedule: Q04DX003 (ip), vehicle: Klucel (hydroxypropylcellulose) (HPC)); 93 % of control (dose: 200.0 mg/kg/injection, schedule: Q04DX003 (ip), vehicle: Klucel (hydroxypropylcellulose) (HPC)); 101 % of control (dose: 400.0 mg/kg/injection, schedule: Q04DX003 (ip), vehicle: Klucel (hydroxypropylcellulose) (HPC)).

Consider `O=c1[nH]c2cc([N+](=O)[O-])ccc2nc1/C=C(\O)c1ccncc1`, for which the T/C by setting is: (dose: 60.0 mg/kg/injection, schedule: Q01DX005 (ip), vehicle: Klucel + Tween-80) 94 % of control; (dose: 120.0 mg/kg/injection, schedule: Q01DX005 (ip), vehicle: Klucel + Tween-80) 88 % of control; (dose: 240.0 mg/kg/injection, schedule: Q01DX005 (ip), vehicle: Klucel + Tween-80) 100 % of control.
